Test results as given in ChEMBL document CHEMBL2021794, “Synthesis, σ₁, σ₂-receptors binding affinity and antiproliferative action of new C1-substituted adamantanes” (Bioorg Med Chem, 2012).

What was measured:
BXPC-3 = experiment: Growth inhibition of human BxPC3 cells after 48 hrs by SRB assay; format: functional; details: BXPC-3, 48 h
MIA PaCa-2 [1] = experiment: Growth inhibition of human MIAPaCa2 cells after 48 hrs by SRB assay; format: functional; details: MIA PaCa-2, 48 h
MIA PaCa-2 [2] = experiment: Antitumor activity against human MIAPaCa2 cells xenografted in SCID mouse assessed as reduction in tumor volume at 70 mg/kg, ip twice a week; details: MIA PaCa-2, ip, read-out: INH
MIA PaCa-2 [3] = experiment: Antitumor activity against human MIAPaCa2 cells xenografted in SCID mouse assessed as tumor weight at 70 mg/kg, ip twice a week (reference value: 1225 +/- 308 mg); format: functional; details: route intraperitoneal
HUVEC = experiment: (§1) Growth inhibition of HUVEC cells after 48 hrs by SRB assay; format: cell-based; details: human, huvec, 48 h
[4] = as §1; format: cell-based; details: human, HUVEC cells
[5] = Displacement of [3H]BTX-B from Na+ channel site 2 after 60 mins by liquid scintillation spectroscopy
DU-145 = experiment: Growth inhibition of human DU145 cells after 48 hrs by SRB assay; format: functional; details: DU-145, 48 h
HL-60(TB) = experiment: Growth inhibition of human HL-60(TB) cells after 48 hrs by SRB assay; format: functional; details: HL-60, 48 h
NCI-H460 = experiment: Growth inhibition of human NCI-H460 cells after 48 hrs by SRB assay; format: functional; details: NCI-H460, 48 h
IGROV-1 = experiment: Growth inhibition of human IGROV1 cells after 48 hrs by SRB assay; format: functional; details: IGROV-1, 48 h
NCI-H69 = experiment: Growth inhibition of human NCI-H69 cells after 48 hrs by SRB assay; format: functional; details: NCI-H69, 48 h
HCT-15 = experiment: Growth inhibition of human HCT15 cells after 48 hrs by SRB assay; format: functional; details: HCT-15, 48 h
SF-268 = experiment: Growth inhibition of human SF268 cells after 48 hrs by SRB assay; format: functional; details: SF-268, 48 h; for CC50: read-out: LC50 (the source's name)
[6] = Displacement of [3H](+)1-DTG from sigma-2 receptor expressed in rat cerebral cortex membranes after 2 hrs by liquid scintillation spectroscopy; format: cell membranes, Membrane
U-251 = experiment: Growth inhibition of human U251 cells after 48 hrs by SRB assay; format: functional; details: U-251, 48 h
DMS-114 = experiment: Growth inhibition of human DMS114 cells after 48 hrs by SRB assay; format: functional; details: DMS-114, 48 h
SF-295 = experiment: Growth inhibition of human SF295 cells after 48 hrs by SRB assay; format: functional; details: SF-295, 48 h
[7] = target: Sigma non-opioid intracellular receptor 1 (Homo sapiens, UniProt Q99720); experiment: Displacement of [3H](+)pentazocine from sigma-1 receptor expressed in human Jurkat cell membranes after 2 hrs by liquid scintillation spectroscopy
Chain of Sigma non-opioid intracellular receptor 1 (Q99720 whole entry): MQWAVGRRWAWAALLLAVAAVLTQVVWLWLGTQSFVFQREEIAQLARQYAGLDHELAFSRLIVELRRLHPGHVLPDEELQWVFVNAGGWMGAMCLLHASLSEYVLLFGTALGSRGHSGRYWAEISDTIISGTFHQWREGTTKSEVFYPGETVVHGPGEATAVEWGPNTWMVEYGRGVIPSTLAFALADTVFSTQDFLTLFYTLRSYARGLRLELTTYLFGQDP

H69AR = experiment: Growth inhibition of human H69AR cells after 48 hrs by SRB assay; format: functional
HCT-116 = experiment: Growth inhibition of human HCT116 cells after 48 hrs by SRB assay; format: functional; details: HCT-116, 48 h; for CC50: read-out: LC50 (the source's name)
PC-3 = experiment: Growth inhibition of human PC3 cells after 48 hrs by SRB assay; format: functional; details: PC-3, 48 h
LOX IMVI = experiment: Growth inhibition of human LOXIMVI cells after 48 hrs by SRB assay; format: functional
[8] = (§2) Growth inhibition of NHDF cells after 48 hrs by SRB assay; format: cell-based; details: human, NHDF cells
NHDF = experiment: as §2; format: cell-based; details: human, nhdf, 48 h
SK-HEP1 = experiment: Growth inhibition of human SKHEP1 cells after 48 hrs by SRB assay; format: functional; details: SK-HEP1, 48 h
OVCAR-5 = experiment: Growth inhibition of human OVCAR5 cells after 48 hrs by SRB assay; format: functional; details: OVCAR-5, 48 h; for CC50: read-out: LC50 (the source's name)
MCF7 = experiment: Growth inhibition of human MCF7 cells after 48 hrs by SRB assay; format: functional; details: MCF7, 48 h; for CC50: read-out: LC50 (the source's name)
[9] = Growth inhibition of human MSC cells after 48 hrs by SRB assay; format: cell-based
[10] = Selectivity ratio of IC50 for human sigma-1 receptor to IC50 for rat sigma-2 receptor
[11] = read-out: LC50 (the source's name)

Compound: Nc1ccn([C@@H]2O[C@H](CO)[C@@H](O)C2(F)F)c(=O)n1 [GEMCITABINE]
- GI50 (BXPC-3): 3.64 µM
- TGI (BXPC-3): 9.05 µM
- GI50 (MIA PaCa-2 [1]): 35.8 µM
- TGI (MIA PaCa-2 [1]): 100 µM
- CC50 (MIA PaCa-2 [1]; [11]): 100 µM
- inhibition in vivo at 70 mg/kg (MIA PaCa-2 [2]): 56.2%
- Activity (MIA PaCa-2 [3]): 537 mg

Compound: CCN1CCN(c2ccc(C(c3ccccc3)C34CC5CC(CC(C5)C3)C4)cc2)CC1 (configuration not stated)
- GI50 (BXPC-3): 7.07 µM
- LC50 (BXPC-3): > 100 µM
- TGI (BXPC-3): 41.6 µM
- LC50 (HUVEC): 9.88 µM
- TGI (HUVEC): 6.72 µM
- GI50 at 48 h [4]: 3.56 µM
- IC50 [5]: 0.7 µM
- GI50 (DU-145): 17.8 µM
- TGI (DU-145): 58.7 µM
- CC50 (DU-145; [11]): 99.6 µM
- GI50 (HL-60(TB)): 6.39 µM
- LC50 (HL-60(TB)): 100 µM
- TGI (HL-60(TB)): 100 µM
- GI50 (NCI-H460): 5.77 µM
- LC50 (concentration killing 50% of cells) (NCI-H460): 100 µM
- TGI (NCI-H460): 9.44 µM
- GI50 (IGROV-1): 8 µM
- TGI (IGROV-1): 49 µM
- CC50 (IGROV-1; [11]): 100 µM
- GI50 (NCI-H69): 5.54 µM
- CC50 (NCI-H69; [11]): 100 µM
- GI50 (HCT-15): 6.63 µM
- LC50 (HCT-15): 100 µM
- TGI (HCT-15): 41.2 µM
- GI50 (SF-268): 8.24 µM
- TGI (SF-268): 53.5 µM
- CC50 (SF-268): 100 µM
- IC50 [6]: 0.004 µM
- GI50 (U-251): 4.23 µM
- TGI (U-251): 7.42 µM
- CC50 (U-251; [11]): 12 µM
- GI50 (DMS-114): 6.05 µM
- TGI (DMS-114): 11.6 µM
- CC50 (DMS-114; [11]): 20.3 µM
- GI50 (SF-295): 19.6 µM
- TGI (SF-295): 50.9 µM
- CC50 (SF-295; [11]): 82.2 µM
- IC50 [7]: 0.0029 µM
- GI50 (H69AR): 4.75 µM
- TGI (H69AR): 7.82 µM
- CC50 (H69AR; [11]): 100 µM
- GI50 (HCT-116): 6.39 µM
- TGI (HCT-116): 32.9 µM
- CC50 (HCT-116): 100 µM
- GI50 (PC-3): 9.01 µM
- TGI (PC-3): 65.6 µM
- CC50 (PC-3; [11]): 100 µM
- GI50 (LOX IMVI): 3.79 µM
- LC50 (concentration killing 50% of cells) (LOX IMVI): 8.4 µM
- TGI (LOX IMVI): 6.09 µM
- GI50 at 48 h [8]: 7.43 µM
- LC50 (NHDF): 100 µM
- TGI (NHDF): 100 µM
- GI50 (SK-HEP1): 3.98 µM
- TGI (SK-HEP1): 7.24 µM
- CC50 (SK-HEP1; [11]): 29.8 µM
- GI50 (OVCAR-5): 6 µM
- TGI (OVCAR-5): 24.5 µM
- CC50 (OVCAR-5): 77.8 µM
- GI50 (MCF7): 9.23 µM
- TGI (MCF7): 59 µM
- CC50 (MCF7): 100 µM
- GI50 at 48 h ([9]; MSC cells): 19.5 µM
- LC50 ([9]; msc, 48 h): 100 µM
- TGI ([9]; msc, 48 h): 72 µM
- Ratio IC50 [10]: 1.4

Compound: c1ccc(C(c2ccc(N3CCOCC3)cc2)C23CC4CC(CC(C4)C2)C3)cc1 (configuration not stated)
- LC50 (BXPC-3): 100 µM
- TGI (BXPC-3): 100 µM
- IC50 [5]: > 10 µM
- LC50 (concentration killing 50% of cells) (NCI-H460): 100 µM
- TGI (NCI-H460): 100 µM
- CC50 (SF-268): 100 µM
- IC50 [6]: > 1 µM
- IC50 [7]: > 0.1 µM
- TGI (HCT-116): 100 µM
- CC50 (HCT-116): 100 µM
- TGI (OVCAR-5): 100 µM
- CC50 (OVCAR-5): 100 µM
- TGI (MCF7): 100 µM
- CC50 (MCF7): 100 µM
